Measurements taken from patent US20110190503A1, “Thiazolopyridin-2-yloxy-phenyl and thiazolopyrazin-2-yloxy-phenyl amines as modulators of leukotriene A4 hydrolase” (Janssen Pharmaceutical NV, priority 2008, published 2011).

Assays:
[1] = tested on: LTB4 production by calcium ionophore-stimulated murine blood; experiment: LTB4 production by calcium ionophore-stimulated murine blood for LTA4H inhibitor activity; assay type: cell-based, CD-1 mice; conditions: Mus musculus; murine blood diluted 1 in 15, calcium ionophore A23187, LTB4 by immunoassay; read-out: IC50
Method: Assay 2: LTB4 Production by Calcium Ionophore-Stimulated Murine Blood for LTA4H Inhibitor Activity
CD-1 mice were sacrificed, and blood was collected in heparin-containing syringes by cardiac puncture. […] After the microtiter plate contents were incubated for 15 min at 37° C. in a humidified incubator, calcium ionophore A23187 (Sigma Chemical Co., St. Louis, Mo.) was added to each sample well (final concentration=7 μg/mL). The incubation was continued under the same conditions for an additional 30 min to allow LTB4 formation. The reaction was terminated by centrifugation (833×g, 10 min at 4° C.), and supernatants were analyzed for LTB4 by a commercially available enzyme-linked immunoassay (Cayman Chemical Co.) according to the manufacturer's instructions. Positive controls, under essentially identical conditions but without addition of an inhibitor compound, and negative unstimulated controls, containing all assay components except calcium ionophore, were routinely run in each experiment. […] The values presented here are the result of a single determination or an average of two or more determinations, as indicated in parentheses following each value. For compounds tested three or more times, the average value is followed by the standard deviation

[2] = molecular target: T1, recombinant human LTA4 hydrolase (rhLTA4H) (Homo sapiens, UniProt P09960); experiment: Recombinant human LTA4 hydrolase assay for LTA4 hydrolase inhibitor activity; assay type: biochemical; conditions: rhLTA4H, LTA4 substrate, LTB4 by immunoassay; single determination or average; read-out: IC50
T1 construct: made in house; host or cells: Spodoptera frugiperda (Sf-9) cells, recombinant baculovirus (pFastBac1)
T1 sequence (P09960 1-611): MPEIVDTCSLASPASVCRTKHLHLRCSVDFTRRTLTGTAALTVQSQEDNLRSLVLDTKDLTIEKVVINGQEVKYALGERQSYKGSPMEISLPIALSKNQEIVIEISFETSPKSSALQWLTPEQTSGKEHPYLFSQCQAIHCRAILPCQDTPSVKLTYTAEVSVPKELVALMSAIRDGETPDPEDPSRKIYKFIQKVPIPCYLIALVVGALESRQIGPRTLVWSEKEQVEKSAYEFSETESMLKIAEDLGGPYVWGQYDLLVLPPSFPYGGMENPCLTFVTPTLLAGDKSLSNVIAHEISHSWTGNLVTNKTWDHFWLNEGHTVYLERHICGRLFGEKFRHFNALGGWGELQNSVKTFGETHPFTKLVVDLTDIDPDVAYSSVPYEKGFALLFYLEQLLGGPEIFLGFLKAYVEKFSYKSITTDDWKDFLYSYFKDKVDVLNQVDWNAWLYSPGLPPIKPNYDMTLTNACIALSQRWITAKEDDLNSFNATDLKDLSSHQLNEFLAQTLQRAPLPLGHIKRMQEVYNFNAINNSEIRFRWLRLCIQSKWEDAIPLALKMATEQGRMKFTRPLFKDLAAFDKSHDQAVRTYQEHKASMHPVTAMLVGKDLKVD
How it was run: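 Recombinant human LTA4H from baculovirus-infected Sf-9 cells (10 ng) pre-incubated 10 min at rt with compound (10% DMSO in dilutions), then reacted with free-acid LTA4 for 30 min at rt. LTB4 measured by ELISA; IC50 by nonlinear regression. Values are single determinations or averages.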

With `c1ccc(C2CCN(CCc3ccc(Oc4nc5ncccc5s4)cc3)CC2)nc1` [Example 48, 2-{4-[2-(4-Pyridin-2-ylpiperidin-1-yl)ethyl]phenoxy}[1,3]thiazolo[4,5-b]pyridine] the IC50 [1] was 100 nM and the IC50 [2] was 15 nM.
Work on `NC(=O)N[C@@H]1C[C@H]2CC[C@@H](C1)N2CCc1ccc(Oc2nc3ncccc3s2)cc1` [Example 50, meso-1-[(3-exo)-8-{2-[4-([1,3]Thiazolo[4,5-b]pyridin-2-yloxy)phenyl]ethyl}-8-azabicyclo[3.2.1]oct-3-yl]urea] yielded an IC50 [1] of 2300 nM and an IC50 [2] of 2 nM.
Work on `c1cncc(OC2CCN(Cc3ccc(Oc4nc5ncccc5s4)cc3)CC2)c1` [Example 98, 2-(4-{[4-(Pyridin-3-yloxy)piperidin-1-yl]methyl}phenoxy)[1,3]thiazolo[4,5-b]pyridine] yielded an IC50 [1] of 9 nM and an IC50 [2] of 6 nM.
For `NC(=O)N1CC2CN(CCc3ccc(Oc4nc5cccnc5s4)cc3)CC2C1` (stereo not drawn) [Example 70, 5-{2-[4-([1,3]Thiazolo[5,4-b]pyridin-2-yloxy)phenyl]ethyl}hexahydropyrrolo[3,4-c]pyrrole-2(1H)-carboxamide], the IC50 [1] was 350 nM and the IC50 [2] was 72 nM.
In the case of `COCCCN(CCOc1ccc(Oc2nc3ncccc3s2)cc1)C1CC1` [Example 272, N-(3-Methoxypropyl)-N-{2-[4-([1,3]thiazolo[4,5-b]pyridin-2-yloxy)phenoxy]ethyl}cyclopropanamine], the IC50 [1] is reported as 97 nM and the IC50 [2] is reported as 37 nM.
`CCCN(CCc1ccc(Oc2nc3ncccc3s2)cc1)CC1CC1` [Example 57, N-(Cyclopropylmethyl)-N-{2-[4-([1,3]thiazolo[4,5-b]pyridin-2-yloxy)phenyl]ethyl}propan-1-amine] showed an IC50 [1] of 16 nM and an IC50 [2] of 3 nM.
`FC1(F)CCN(Cc2ccc(Oc3nc4ncccc4s3)cc2)C1` [Example 93, 2-{4-[(3,3-Difluoropyrrolidin-1-yl)methyl]phenoxy}[1,3]thiazolo[4,5-b]pyridine] showed an IC50 [1] of 520 nM and an IC50 [2] of 55 nM.
`CCCCN(CC)CCc1ccc(Oc2nc3ncc(C)cc3s2)cc1` [Example 178, N-Ethyl-N-(2-{4-[(6-methyl[1,3]thiazolo[4,5-b]pyridin-2-yl)oxy]phenyl}ethyl)butan-1-amine] gave an IC50 [1] of 260 nM and an IC50 [2] of 11 nM.
For `c1ccc(SC2CCN(Cc3ccc(Oc4nc5ncccc5s4)cc3)CC2)nc1` [Example 263, 2-(4-{[4-(Pyridin-2-ylsulfanyl)piperidin-1-yl]methyl}phenoxy)[1,3]thiazolo[4,5-b]pyridine], the IC50 [1] was 462 nM and the IC50 [2] was 4 nM.
In the case of `OCC1CCN(Cc2ccc(Oc3nc4ncccc4s3)cc2)CC1` [Example 95, {1-[4-([1,3]Thiazolo[4,5-b]pyridin-2-yloxy)benzyl]piperidin-4-yl}methanol], the IC50 [1] is reported as 29 nM and the IC50 [2] is reported as 11 nM.
Compound `c1cnc2nc(Oc3ccc(CN4CCC(Oc5ccncc5)CC4)cc3)sc2c1` [Example 262, 2-(4-{[4-(Pyridin-4-yloxy)piperidin-1-yl]methyl}phenoxy)[1,3]thiazolo[4,5-b]pyridine] has an IC50 [1] of 97 nM and an IC50 [2] of 3 nM.
`O[C@@H]1CCN(Cc2ccc(Oc3nc4ncccc4s3)cc2)C1` [Example 94, (3R)-1-[4-([1,3]Thiazolo[4,5-b]pyridin-2-yloxy)benzyl]pyrrolidin-3-ol] showed an IC50 [1] of 35 nM and an IC50 [2] of 4 nM.
For `Cc1ccc(SC2CCN(CCOc3ccc(Oc4nc5ncccc5s4)cc3)CC2)cc1` [Example 255, 2-[4-(2-{4-[(4-Methylphenyl)sulfanyl]piperidin-1-yl}ethoxy)phenoxy][1,3]thiazolo[4,5-b]pyridine], the IC50 [1] was 1300 nM and the IC50 [2] was 71 nM.
With `CC1CCN(Cc2ccc(Oc3nc4ncccc4s3)cc2)CC1` [Example 97, 2-{4-[(4-Methylpiperidin-1-yl)methyl]phenoxy}[1,3]thiazolo[4,5-b]pyridine] the IC50 [1] was 13 nM and the IC50 [2] was 1 nM.
`CCOC(=O)C1CCN(Cc2ccc(Oc3nc4ncccc4s3)cc2)CC1` [Example 130, Ethyl 1-[4-([1,3]thiazolo[4,5-b]pyridin-2-yloxy)benzyl]piperidine-4-carboxylate] showed an IC50 [1] of 110 nM and an IC50 [2] of 2.5 nM.
Work on `C[C@H]1CCCCN1Cc1ccc(Oc2nc3ncccc3s2)cc1` [Example 90, 2-(4-{[(2S)-2-Methylpiperidin-1-yl]methyl}phenoxy)[1,3]thiazolo[4,5-b]pyridine] yielded an IC50 [1] of 23 nM and an IC50 [2] of 0.8 nM.
In the case of `OC1(c2cccc(C(F)(F)F)c2)CCN(CCc2ccc(Oc3nc4ncccc4s3)cc2)CC1` [Example 64, 1-{2-[4-([1,3]Thiazolo[4,5-b]pyridin-2-yloxy)phenyl]ethyl}-4-[3-(trifluoromethyl)phenyl]piperidin-4-ol], the IC50 [1] is reported as 220 nM and the IC50 [2] is reported as 27 nM.
In the case of `NC(=O)N1C[C@H]2CC[C@@H](C1)N2Cc1ccc(Oc2nc3ncccc3s2)cc1` [Example 117, meso-8-[4-([1,3]Thiazolo[4,5-b]pyridin-2-yloxy)benzyl]-3,8-diazabicyclo[3.2.1]octane-3-carboxamide], the IC50 [1] is reported as 18 nM and the IC50 [2] is reported as 9 nM.
`NC(=O)C1CCN(Cc2ccc(Oc3nc4ncc(Cl)cc4s3)cc2)CC1` [Example 284, 1-{4-[(6-Chloro[1,3]thiazolo[4,5-b]pyridin-2-yl)oxy]benzyl}piperidine-4-carboxamide] was tested, and the IC50 [1] was 640 nM and the IC50 [2] was 89 nM.
`c1ccc(C2CCN(CCOc3ccc(Oc4nc5ncccc5s4)cc3)CC2)nc1` [Example 34, 2-{4-[2-(4-Pyridin-2-ylpiperidin-1-yl)ethoxy]phenoxy}[1,3]thiazolo[4,5-b]pyridine] showed an IC50 [1] of 140 nM and an IC50 [2] of 19 nM.
For `CC(=O)N1C[C@@H]2C[C@H]1CN2Cc1ccc(Oc2nc3cccnc3s2)cc1` [Example 124, 2-(4-{[(1S,4S)-5-Acetyl-2,5-diazabicyclo[2.2.1]hept-2-yl]methyl}phenoxy)[1,3]thiazolo[5,4-b]pyridine], the IC50 [1] was 700 nM and the IC50 [2] was 220 nM.
Work on `NC(=O)N1C[C@H]2CC[C@@H](C1)N2CCc1ccc(Oc2nc3cccnc3s2)cc1` [Example 71, meso-8-{2-[4-([1,3]Thiazolo[5,4-b]pyridin-2-yloxy)phenyl]ethyl}-3,8-diazabicyclo[3.2.1]octane-3-carboxamide] yielded an IC50 [1] of 280 nM and an IC50 [2] of 81 nM.
Compound `OC1(c2ccccn2)CCN(CCOc2ccc(Oc3nc4ncccc4s3)cc2)CC1` [Example 5, 4-Pyridin-2-yl-1-{2-[4-([1,3]thiazolo[4,5-b]pyridin-2-yloxy)phenoxy]ethyl}piperidin-4-ol] has an IC50 [1] of 140 nM and an IC50 [2] of 14 nM.
Work on `NC(=O)N1CC2CN(Cc3ccc(Oc4nc5ncccc5s4)cc3)CC2C1` (stereo not drawn) [Example 277, 5-[4-([1,3]Thiazolo[4,5-b]pyridin-2-yloxy)benzyl]hexahydropyrrolo[3,4-c]pyrrole-2(1H)-carboxamide] yielded an IC50 [1] of 900 nM and an IC50 [2] of 7 nM.
In the case of `CC(=O)N1C[C@@H]2C[C@H]1CN2Cc1ccc(Oc2nc3ncc(F)cc3s2)cc1` [Example 128, 2-(4-{[(1S,4S)-5-Acetyl-2,5-diazabicyclo[2.2.1]hept-2-yl]methyl}phenoxy)-6-fluoro[1,3]thiazolo[4,5-b]pyridine], the IC50 [1] is reported as 5 nM and the IC50 [2] is reported as 23 nM.
`C[C@H]1COCCN1Cc1ccc(Oc2nc3ncccc3s2)cc1` [Example 88, 2-(4-{[(3S)-3-Methylmorpholin-4-yl]methyl}phenoxy)[1,3]thiazolo[4,5-b]pyridine] gave an IC50 [1] of 50 nM and an IC50 [2] of 8 nM.
`c1cnc2nc(Oc3ccc(CCN4CCC(c5ccncc5)CC4)cc3)sc2c1` [Example 65, 2-{4-[2-(4-Pyridin-4-ylpiperidin-1-yl)ethyl]phenoxy}[1,3]thiazolo[4,5-b]pyridine] was tested, and the IC50 [1] was 100 nM and the IC50 [2] was 9.6 nM.
